Data: article PMC12749252 (Nature Communications, 2025)

Tests used:
WEE1 = WEE1 (Homo sapiens, UniProt P30291); test: NanoBRET target engagement in HEK293 cells; format: cell-based
GCN2 = GCN2 (Homo sapiens, UniProt Q9P2K8); test: Eurofins KinaseProfiler in vitro; format: biochemical
Sequence of GCN2 (Q9P2K8 whole entry): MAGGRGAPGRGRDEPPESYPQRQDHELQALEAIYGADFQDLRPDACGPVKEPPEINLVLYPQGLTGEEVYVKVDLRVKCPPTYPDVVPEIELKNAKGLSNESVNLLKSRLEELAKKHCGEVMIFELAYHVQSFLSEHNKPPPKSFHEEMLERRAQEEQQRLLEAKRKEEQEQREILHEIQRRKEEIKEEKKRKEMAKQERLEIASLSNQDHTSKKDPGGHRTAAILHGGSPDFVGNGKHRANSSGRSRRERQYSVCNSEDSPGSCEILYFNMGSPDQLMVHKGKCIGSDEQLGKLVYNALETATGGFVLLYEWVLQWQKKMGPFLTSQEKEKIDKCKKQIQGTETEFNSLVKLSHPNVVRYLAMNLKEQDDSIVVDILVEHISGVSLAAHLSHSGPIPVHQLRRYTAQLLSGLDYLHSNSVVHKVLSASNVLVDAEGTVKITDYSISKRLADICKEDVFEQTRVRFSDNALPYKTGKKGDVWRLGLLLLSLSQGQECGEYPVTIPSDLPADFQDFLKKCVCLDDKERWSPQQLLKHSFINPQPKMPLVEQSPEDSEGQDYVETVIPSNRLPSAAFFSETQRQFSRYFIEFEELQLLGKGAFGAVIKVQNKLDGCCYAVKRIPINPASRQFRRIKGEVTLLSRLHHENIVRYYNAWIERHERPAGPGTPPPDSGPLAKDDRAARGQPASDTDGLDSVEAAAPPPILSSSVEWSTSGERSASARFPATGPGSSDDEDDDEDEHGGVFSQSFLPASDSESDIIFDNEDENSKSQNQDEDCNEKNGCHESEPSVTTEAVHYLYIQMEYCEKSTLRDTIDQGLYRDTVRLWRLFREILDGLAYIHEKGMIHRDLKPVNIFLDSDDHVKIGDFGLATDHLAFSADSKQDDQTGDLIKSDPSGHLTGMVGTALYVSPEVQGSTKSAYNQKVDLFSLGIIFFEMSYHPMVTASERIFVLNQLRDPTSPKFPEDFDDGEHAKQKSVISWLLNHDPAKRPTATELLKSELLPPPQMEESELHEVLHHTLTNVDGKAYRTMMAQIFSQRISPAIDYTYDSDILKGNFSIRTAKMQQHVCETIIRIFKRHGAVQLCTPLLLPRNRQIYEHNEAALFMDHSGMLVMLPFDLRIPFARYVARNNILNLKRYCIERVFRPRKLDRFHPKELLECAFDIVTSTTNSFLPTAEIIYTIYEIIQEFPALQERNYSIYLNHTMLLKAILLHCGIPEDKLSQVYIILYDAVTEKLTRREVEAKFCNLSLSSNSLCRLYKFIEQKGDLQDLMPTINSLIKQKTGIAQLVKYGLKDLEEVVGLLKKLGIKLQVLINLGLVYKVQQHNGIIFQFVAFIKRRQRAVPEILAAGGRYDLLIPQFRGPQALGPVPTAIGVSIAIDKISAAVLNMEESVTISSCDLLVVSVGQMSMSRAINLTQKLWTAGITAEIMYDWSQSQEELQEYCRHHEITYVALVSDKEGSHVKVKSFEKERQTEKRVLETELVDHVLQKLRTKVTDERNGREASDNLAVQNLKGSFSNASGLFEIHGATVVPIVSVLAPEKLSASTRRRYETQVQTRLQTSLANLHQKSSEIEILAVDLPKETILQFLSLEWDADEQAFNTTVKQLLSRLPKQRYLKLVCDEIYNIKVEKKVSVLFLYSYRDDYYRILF

Sequence of WEE1 (P30291 whole entry): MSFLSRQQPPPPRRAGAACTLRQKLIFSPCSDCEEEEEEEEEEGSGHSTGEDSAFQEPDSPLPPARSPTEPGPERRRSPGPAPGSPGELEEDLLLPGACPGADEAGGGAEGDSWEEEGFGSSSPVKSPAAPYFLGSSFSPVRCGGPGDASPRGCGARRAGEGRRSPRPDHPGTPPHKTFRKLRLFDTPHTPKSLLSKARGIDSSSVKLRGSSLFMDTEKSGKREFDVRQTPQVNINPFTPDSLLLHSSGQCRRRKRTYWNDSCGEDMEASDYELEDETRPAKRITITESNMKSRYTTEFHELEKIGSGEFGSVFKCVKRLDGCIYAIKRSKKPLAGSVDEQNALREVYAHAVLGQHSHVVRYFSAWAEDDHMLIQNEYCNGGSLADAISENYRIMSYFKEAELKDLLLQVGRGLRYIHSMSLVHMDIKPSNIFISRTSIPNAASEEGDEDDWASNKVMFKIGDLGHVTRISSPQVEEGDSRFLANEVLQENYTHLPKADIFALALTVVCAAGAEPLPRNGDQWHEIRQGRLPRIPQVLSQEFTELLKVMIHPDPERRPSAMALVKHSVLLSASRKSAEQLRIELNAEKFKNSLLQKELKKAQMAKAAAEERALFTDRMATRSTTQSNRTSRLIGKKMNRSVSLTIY

Row | IC50 (GCN2) | Compound | NanoBRET target engagement in HEK293 cells (only at high doses) (WEE1)
1 |  | Cc1cc2c(C(N)=O)c(N)n(-c3c(C)ccc(O)c3C)c2nc1C [RP-6306] | while PKMYT1i only interacted at high doses (Fig. 5c)
2 | 140 nM | C=CCn1c(=O)c2cnc(Nc3ccc(N4CCN(C)CC4)cc3)nc2n1-c1cccc(C(C)(C)O)n1 [AZD1775] | 
